Data taken from EP0390515A1, “Novel adenine derivatives and their use as agents for increasing crop yields” (MITSUBISHI GAS CHEMICAL COMPANY, INC., priority 1989, dated 1990).
In brackets after ≈: the same amount, converted by molar mass. Where two headings read alike, the source gives them in different places.

Columns and labels:
[1] = Water solubility; assay type: physicochemical
Method: Water solubility of adenine derivatives of the present invention and representative known cytokinin substances was measured and the results are shown in Table 7. […]

[2] = tested on: glycine (soybean) hypocotyl section; test: Assay for cytokinin activity according to glycine (soybean) hypocotyl section growth test (callus weight); assay type: cell-based, Soybean (var.: Enrei); conditions: Miller's medium with 2,4-D, dark, 30°C, about one month
Method: Soybean seeds (var.: Enrei) were disinfected with antiformin containing 0.7% effective chlorine for 4 minutes and washed thrice with sterilized water.
Agar (15 ml, 1.6%) was put in a test tube 2.5 cm in diameter. A groove was cut by forceps on the surface of the agar and two soybean seeds treated as above were placed in this groove and kept in the dark at 30°C for 5 days.
In a glass tubular bottle 26 mm in inner diameter was put Miller's medium, to which a given concentration of the candidate compound, benzyladenine or zeatin and […] of 2,4-D were added. The central portion of hypocotyl budding out from the above seeds was cut off to give a section 1 mm thick. Four of the sections as one group were transplanted to the Miller's medium. This was placed in the dark at 30°C for about one month and then the weight of callus formed was measured. For untreated group, the Miller's medium containing 9 mg/l of 2,4-D was used.

[3] = tested on: pig weed (Amaranthus caudatus); test: Assay of cytokinin activity to promote synthesis of betacyanin by pig weed cotyledon sections; assay type: cell-based; conditions: 27°C, 20 hours, dark
Method: Two sheets of filter paper were put double in a plastic container (19 x 28 cm) and were wetted with 60 ml of distilled water. Seeds of pig weed were sown on the filter papers and were germinated by keeping them in the dark at 27°C for 3 days. Seedlings of uniform size were chosen and were cut at the upper part of the hypocotyl and the seed coats were removed. This cotyledon with hypocotyl of 3-4 mm in length was used for assay.
Two sheets of filter paper were put double in a glass tubular bottle 32 mm in inner diameter and 1 ml of 0.0065M potassium phosphate buffer solution (pH: 6.3) containing a given concentration of the candidate compound, benzyladenine or zeatin and 0.5 g/l of tyrosine was added therein and ten of the above cotyledon sections were arranged therein and kept at 27°C for 20 hours in the dark. These ten cotyledon sections were put in a test tube containing 3 ml of distilled water and betacyanin was extracted by repeating thrice freezing and thawing. Absorbance of the solution was measured and the amount of the dye was calculated by the difference between the absorbance at 542 nm and at 620 nm. For the untreated group, 0.0065M potassium phosphate buffer solution (pH: 6.3) containing 0.5 g/l of tyrosine was used.

[4] = tested on: Rice seeds (var.: Nankin No. 11) leaf section; test: Assay of cytokinin activity by measurement of chlorophyll content (senescence retardation of rice leaf sections); assay type: cell-based, Rice (var.: Nankin No. 11); conditions: dark, 30°C, 3 days
Method: Rice seeds (var.: Nankin No. 11) were sown in soil mixed with fertilizer in a seed box and raised for about one month in a greenhouse (25°C in the daytime and 15°C in the night).
A leaf section 1 cm long was cut off from the center of the fourth leaf of the seedlings at the sixth leaf stage. Five leaf sections as one group which had been cut off were floated on the surface of an aqueous solution (2 ml) of the candidate compound or benzyl adenine at a given concentration contained in a glass tubular bottle of 32 mm in inner diameter. This was left to stand in the dark at 30°C for 3 days. The leaf sections were taken out and put in a test tube containing 10 ml of 80% ethanol and the glass tube was immersed in a water bath of 80°C for 20 minutes to extract chlorophyll. After cooling, 80% ethanol was added to make up to 10 ml and absorbance at 665 nm was measured. For the untreated group, water was used in place of the candidate solution in all examples.
Senescence retardation was determined according to the degree of chlorophyll retention, that is, calculated using the following formula (in all examples). [formula] • (A) : Absorbance of treated group after 3 days • (B) : Absorbance of untreated group after 3 days • (C) : Absorbance of leaves before treatment.

[5] = 20°C, read-out: Solubility (g/100 g H₂O) (20°C)

solubility [1] [mg/mL]	solubility [1, 5] [mg/mL]	Structure (SMILES)	The weight of soybean callus formed ([2]; 0.01 mg/l) [mg]	The weight of soybean callus formed ([2]; 0.1 mg/l) [mg]	The weight of soybean callus formed ([2]; 1.0 mg/l) [mg]	The weight of soybean callus formed ([2]; 10 mg/l) [mg]	The amount of betacyanin produced (difference between absorbance at 542 nm and 620 nm) ([3]; 0.1 mg/l)	The amount of betacyanin produced (difference between absorbance at 542 nm and 620 nm) ([3]; 1.0 mg/l)	The amount of betacyanin produced (difference between absorbance at 542 nm and 620 nm) ([3]; 10 mg/l)	The amount of betacyanin produced (difference between absorbance at 542 nm and 620 nm) ([3]; 100 mg/l)	The senescence retardation (%) ([4]; 0.01 mg/l)	The senescence retardation (%) ([4]; 0.1 mg/l)	The senescence retardation (%) ([4]; 1.0 mg/l)	The senescence retardation (%) ([4]; 10 mg/l)	The senescence retardation (%) ([4]; 100 mg/l)	The weight of soybean callus formed ([2]; 0.001 mg/l) [mg]	The amount of betacyanin produced (difference between absorbance at 542 nm and 620 nm) ([3]; 0.001 mg/l)	The amount of betacyanin produced (difference between absorbance at 542 nm and 620 nm) ([3]; 0.01 mg/l)
0.02 (≈ 0.0929 mM)		c1coc(CNc2ncnc3[nH]cnc23)c1 [Kinetin, reference compound]																
	53 (≈ 212 mM)	CON(C)CCCCNc1ncnc2nc[nH]c12 [MABD, N⁶-[4-(N-methoxy-N-methylamino)butyl]adenine]	51	152	178	824	0.044	0.069	0.127	0.207	1	11	21	77	87			
	136 (≈ 576 mM)	CON(C)CCCNc1ncnc2nc[nH]c12 [MAPD, N⁶-[3-(N-methoxy-N-methylamino)propyl]adenine]	131	143	841	677	0.065	0.132	0.227	0.236	18	50	94	99	91			
	1.4 (≈ 6.39 mM)	C/C(=C\CNc1ncnc2[nH]cnc12)CO [t-Zeatin, reference compound]	382	815	662		0.198	0.242								52	0.040	0.062
